pIC50: −log10 of the molar value. Where two headings read alike, the source gives them in different places.
What was measured:
[1] = biological target: CDK2/Cyclin E1 (Homo sapiens, UniProt P24941); assay: ADP-Glo Luminescent Kinase Assay (CDK2/E1-37C); assay type: biochemical; details: 0.18 nM CDK2/Cyclin E1, 100 μM ATP, 1.5 μM Histone H1, 37° C., 60 min pre-incubation; for pIC50: read-out: ADPGLO (CDK2/E1-37C): IC50
Procedure: Inhibition of CDK2/Cyclin E1 activity by the presence of small molecules was evaluated using ADP-Glo Luminescent Kinase Assay (Promega). Activated CDK2/Cyclin E1 was incubated with its substrate Histone H1 (SignalChem H10-54N) in the kinase reaction buffer (100 μM ATP, 50 mM HEPES pH 7.5, 10 mM MgCl2, 1 mM EDTA, 2 mM DTT, 0.01% Brij35, 0.5 mg/mL BSA). Luminescence was recorded with an Envision plate reader (PerkinElmer).
Dose titrations of inhibitors in 100% DMSO were combined with 0.36 nM CDK2/Cyclin E1 in reaction buffer. The mixtures were incubated for 60 minutes at 37° C. before the addition of ATP and Histone H1 substrate to initiate the kinase reaction. The final conditions were 0.18 nM CDK2/Cyclin E1, 100 μM ATP, and 1.5 μM Histone H1. The reactions were incubated at 37° C. for 90 minutes before being stopped with the addition of ADP-Glo reagent. This mixture was incubated at room temperature for 60 minutes before Kinase Detection Solution is added to generate luminescence. The stopped reactions were analyzed on an Envision plate reader. The conversion ratios were normalized to yield % activity, plotted against compound concentration, and fit to a four-parameter equation to determine the IC50 for each compound.

[2] = tested on: Kuramochi cells; assay: IncuCyte cell proliferation assay; assay type: cell-based; details: for pIC50: Kuramochi cells labeled with mApple-H2B, cell count 0 to 72 hours, 20 μM top concentration, read-out: IncuCyte Kuramochi RB-WT: IC50; for IC50: read-out: IncuCyte Kuramochi RB-WT: IC50 (μM)
Procedure: IncuCyte® assay was used to measure the effect of disclosed compounds on cell proliferation. Fluorescent microscopy images of cells were taken immediately after compound treatment and 72 hours later. Image analysis software was used to obtain cell counts as a function of compound concentration. Kuramochi cells labeled with mApple-H2B were seeded on 384-well assay-ready plates. Plates were placed in an IncuCyte® (Sartorius) and scanned at 0 and 72 hours. IncuCyte® software was used to count the number of fluorescent nuclei in each well. The fold change in cell count from 0 to 72 hours in wells treated with increasing compounds concentrations (10 pts, 1/2 log dilution, 20 μM top concentration) was normalized to DMSO control wells. The normalized cell counts were fit with dose response curves and a […] was calculated.

pIC50 [1]	Compound	pIC50 [2]	IC50 ([1]; ADPGLO (CDK2/E1-37C): IC50 (μM)) [µM]	IC50 [2] [µM]
> 6.30	COC(=O)C1CCN(C(=O)[C@@H](NC(=O)[C@@H]2CN(C(=O)c3cnn(Cc4ccccc4)c3)CC23CN(C(=O)[C@H]2CC2(C)C)C3)[C@@H](C)OCC2CCCCC2)CC1 [Example I-17]	> 6.30	–	–
> 6.30	C[C@@H](OCC1CCCCC1)[C@H](NC(=O)[C@@H]1CN(C(=O)c2cnn(Cc3ccccc3)c2)CC12CN(C(=O)[C@H]1CC1(C)C)C2)C(=O)NS(C)(=O)=O [Example I-18]	< 4.70	–	–
> 6.30	COc1ccc(S(=O)(=O)NC(=O)[C@@H](NC(=O)[C@@H]2CN(C(=O)c3cnn(Cc4ccccc4)c3)CC23CN(C(=O)[C@H]2CC2(C)C)C3)[C@@H](C)OCC2CCCCC2)cc1 [Example I-22]	5.30 to 6.30	–	–
> 6.30	C[C@@H](OCC1CCCCC1)[C@H](NC(=O)[C@@H]1CN(C(=O)c2cnn(Cc3ccccc3)c2)CC12CN(C(=O)[C@H]1CC1(C)C)C2)C(=O)NS(=O)(=O)c1ccc(F)cc1F [Example I-26, (S)-6-(1-benzyl-1H-pyrazole-4-carbonyl)-N-((2S,3R)-3-(cyclohexylmethoxy)-1-((2,4-difluorophenyl)sulfonamido)-1-oxobutan-2-yl)-2-((S)-2,2-dimethylcyclopropane-1-carbonyl)-2,6-diazaspiro[3.4]octane-8-carboxamide]	5.30 to 6.30	–	–
> 6.30	Cc1oc(=O)oc1COC(=O)C(C)(C)CNC(=O)[C@@H](NC(=O)[C@@H]1CN(C(=O)c2cnn(Cc3ccccc3)c2)CC12CN(C(=O)[C@H]1CC1(C)C)C2)[C@@H](C)OCC1CCCCC1 [Example I-32, (5-methyl-2-oxo-1,3-dioxol-4-yl)methyl 3-((2S,3R)-2-((S)-6-(1-benzyl-1H-pyrazole-4-carbonyl)-2-((S)-2,2-dimethylcyclopropane-1-carbonyl)-2,6-diazaspiro[3.4]octane-8-carboxamido)-3-(cyclohexylmethoxy)butanamido)-2,2-dimethylpropanoate]	4.70 to 5.30	–	–
> 6.30	C[C@@H](OCC1CCCCC1)[C@H](NC(=O)[C@@H]1CN(C(=O)c2cnn(Cc3ccccc3)c2)CC12CN(C(=O)[C@H]1CC1(C)C)C2)C(=O)NCCC(=O)NS(C)(=O)=O [Example I-33, (S)-6-(1-benzyl-1H-pyrazole-4-carbonyl)-N-((2S,3R)-3-(cyclohexylmethoxy)-1-((3-(methylsulfonamido)-3-oxopropyl)amino)-1-oxobutan-2-yl)-2-((S)-2,2-dimethylcyclopropane-1-carbonyl)-2,6-diazaspiro[3.4]octane-8-carboxamide]	< 4.70	–	–
> 6.30	C[C@@H](OCC1CCCCC1)[C@H](NC(=O)[C@@H]1CN(C(=O)c2cnn(Cc3ccccc3)c2)CC12CN(C(=O)[C@H]1CC1(C)C)C2)C(=O)N1CCCC[C@@H]1C(=O)O [Example I-35]	< 4.70	–	–

Second part, the molecule before the results:

Compound	pIC50 [1]	pIC50 [2]	IC50 ([1]; ADPGLO (CDK2/E1-37C): IC50 (μM)) [µM]	IC50 [2] [µM]
C[C@@H](OCC12CCC(CC1)OC2)[C@H](NC(=O)[C@@H]1CN(C(=O)c2cnn(Cc3ccccc3C(=O)O)c2)CC12CN(C(=O)C1(C(F)(F)F)CC1)C2)C(=O)N1CCN(Cc2ccc(C(F)(F)F)cc2)CC1 [Example I-14, 2-((4-((S)-8-(((2S,3R)-3-((2-oxabicyclo[2.2.2]octan-4-yl)methoxy)-1-oxo-1-(4-(4-(trifluoromethyl)benzyl)piperazin-1-yl)butan-2-yl)carbamoyl)-2-(1-(trifluoromethyl)cyclopropane-1-carbonyl)-2,6-diazaspiro[3.4]octane-6-carbonyl)-1H-pyrazol-1-yl)methyl)benzoic acid]	> 6.30	< 4.70	–	–
C[C@@H](OCC12CCC(CC1)OC2)[C@H](NC(=O)[C@@H]1CN(C(=O)c2cnn(Cc3ccc(C(F)(F)F)cc3)c2)CC12CN(C(=O)C1(C(F)(F)F)CC1)C2)C(=O)NCCc1nnn[nH]1 [Example I-16]	5.00 to 5.30	< 4.70	–	–
N#Cc1ccc(Cn2cc(C(=O)N3CC(C(=O)N[C@H](COCC45CCC(CC4)OC5)c4ccc(C(=O)O)cc4)C4(C3)CN(C(=O)C3(C(F)(F)F)CC3)C4)cn2)cc1 (stereo partly drawn) [Example I-19]	< 5.00	< 4.70	–	–
COC(=O)c1ccc([C@@H](COCC23CCC(CC2)OC3)NC(=O)C2CN(C(=O)c3cnn(Cc4ccc(C#N)cc4)c3)CC23CN(C(=O)C2(C(F)(F)F)CC2)C3)cc1 (stereo partly drawn) [Example I-20]	5.00 to 5.30	< 4.70	–	–
COC(=O)CC1CN(C(=O)[C@@H]2CN(C(=O)c3cncs3)CC23CN(C(=O)[C@H]2CC2(C)C)C3)CCN1CC1CCCCC1 (stereo partly drawn) [Example I-21]	< 5.00	< 4.70	–	–
N#Cc1ccc(Cn2cc(C(=O)N3CC(C(=O)N[C@@H](COCC45CCC(CC4)OC5)c4ccc(C(=O)O)cc4)C4(C3)CN(C(=O)C3(C(F)(F)F)CC3)C4)cn2)cc1 (stereo partly drawn) [Example I-23, 4-((1R)-2-((2-oxabicyclo[2.2.2]octan-4-yl)methoxy)-1-(6-(1-(4-cyanobenzyl)-1H-pyrazole-4-carbonyl)-2-(1-(trifluoromethyl)cyclopropane-1-carbonyl)-2,6-diazaspiro[3.4]octane-8-carboxamido)ethyl)benzoic acid]	< 5.00	< 4.70	–	–
COC(=O)c1ccc([C@H](COCC23CCC(CC2)OC3)NC(=O)C2CN(C(=O)c3cnn(Cc4ccc(C#N)cc4)c3)CC23CN(C(=O)C2(C(F)(F)F)CC2)C3)cc1 (stereo partly drawn) [Example I-24, methyl 4-((1R)-2-((2-oxabicyclo[2.2.2]octan-4-yl)methoxy)-1-(6-(1-(4-cyanobenzyl)-1H-pyrazole-4-carbonyl)-2-(1-(trifluoromethyl)cyclopropane-1-carbonyl)-2,6-diazaspiro[3.4]octane-8-carboxamido)ethyl)benzoate]	5.00 to 5.30	< 4.70	–	–
C[C@@H](OCC12CCC(CC1)OC2)[C@H](NC(=O)[C@@H]1CN(C(=O)c2cnn(Cc3ccc(C(F)(F)F)cc3)c2)CC12CN(C(=O)C1(C(F)(F)F)CC1)C2)C(=O)N1CCC(C#N)CC1 [Example I-25, (S)—N-((2S,3R)-3-((2-oxabicyclo[2.2.2]octan-4-yl)methoxy)-1-(4-cyanopiperidin-1-yl)-1-oxobutan-2-yl)-6-(1-(4-(trifluoromethyl)benzyl)-1H-pyrazole-4-carbonyl)-2-(1-(trifluoromethyl)cyclopropane-1-carbonyl)-2,6-diazaspiro[3.4]octane-8-carboxamide]	> 6.30	< 4.70	–	–
COP(=O)(CCNC(=O)[C@@H](NC(=O)[C@@H]1CN(C(=O)c2cnn(Cc3ccccc3)c2)CC12CN(C(=O)[C@H]1CC1(C)C)C2)[C@@H](C)OCC1CCCCC1)OC [Example I-27]	–	–	< 0.5	0.5 to 5
C[C@@H](OCC1CCCCC1)[C@H](NC(=O)[C@@H]1CN(C(=O)c2cnn(Cc3ccccc3)c2)CC12CN(C(=O)[C@H]1CC1(C)C)C2)C(=O)N1CCN(c2ccc(C(=O)O)cc2)CC1 [Example I-28]	> 6.30	5.30 to 6.30	–	–
C[C@@H](OCC1CCCCC1)[C@H](NC(=O)[C@@H]1CN(C(=O)c2cnn(Cc3ccc(C(F)(F)F)cc3)c2)CC12CN(C(=O)[C@H]1CC1(C)C)C2)C(=O)N1CCC(c2ccc(C(=O)O)cc2)CC1 [Example I-29]	> 6.30	–	–	0.5 to 5
C[C@@H](OCC1CCCCC1)[C@H](NC(=O)[C@@H]1CN(C(=O)c2cnn(CC3CCCCC3)c2)CC12CN(C(=O)[C@H]1CC1(C)C)C2)C(=O)N1CCC(c2ccc(C(=O)O)cc2)CC1 [Example I-30, 4-(1-(O-(cyclohexylmethyl)-N—((S)-6-(1-(cyclohexylmethyl)-1H-pyrazole-4-carbonyl)-2-((S)-2,2-dimethylcyclopropane-1-carbonyl)-2,6-diazaspiro[3.4]octane-8-carbonyl)-L-threonyl)piperidin-4-yl)benzoic acid]	> 6.30	5.30 to 6.30	–	–
COC(=O)c1ccc(N2CCN(C(=O)[C@@H](NC(=O)[C@@H]3CN(C(=O)c4cnn(Cc5ccccc5)c4)CC34CN(C(=O)[C@H]3CC3(C)C)C4)[C@@H](C)OCC3CCCCC3)CC2)cc1 [Example I-31]	> 6.30	> 6.30	–	–
C[C@@H](OCC12CCC(CC1)OC2)[C@H](NC(=O)[C@@H]1CN(C(=O)c2cncs2)CC12CN(C(=O)C1(C(F)(F)F)CC1)C2)C(=O)N1CCC(c2nccs2)CC1 [Example I-34, (S)—N-((2S,3R)-3-((2-oxabicyclo[2.2.2]octan-4-yl)methoxy)-1-oxo-1-(4-(thiazol-2-yl)piperidin-1-yl)butan-2-yl)-6-(thiazole-5-carbonyl)-2-(1-(trifluoromethyl)cyclopropane-1-carbonyl)-2,6-diazaspiro[3.4]octane-8-carboxamide]	> 6.30	5.30 to 6.30	–	–

Source: US20260265262A1, “CDK2 INHIBITORS AND METHODS OF USING THE SAME” (Cedilla Therapeutics, Inc., priority 2022, published 2026)
